Assay results: PubChem BioAssay AID1918995 (Molecular Pharmacology Branch, DTP, NCI, 2023)

System: 324938-238-R-J1-PDC complex spheroid growth, % test/control
Assay: Anticancer human tumor 324938-238-R-J1-PDC patient-derived bladder carcinoma cell line growth inhibition [AhR]
Conditions: for IC50: curve of first compound; for viability, T/C: stronger effect = lower value
In short: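 Agents were dosed in half-log steps down from roughly clinical Cmax, or from 10 microM where Cmax was unknown, alone and with AhR antagonists. Read-out: percent test/control growth of tumor spheroids containing HUVEC and MSC stromal cells.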

[1] = second compound 0.1 µM, first compound 0.000949 µM
[2] = second compound 0.1 µM, first compound 0.003 µM
[3] = second compound 0.1 µM, first compound 0.00949 µM
[4] = second compound 0.1 µM, first compound 0.03 µM
[5] = second compound 0.1 µM, first compound 0.0949 µM
[6] = second compound 0.1 µM, first compound 0.3 µM
[7] = second compound 0.316 µM, first compound 0.000949 µM
[8] = second compound 0.316 µM, first compound 0.003 µM
[9] = second compound 0.316 µM, first compound 0.00949 µM
[10] = second compound 0.316 µM, first compound 0.03 µM
[11] = second compound 0.316 µM, first compound 0.0949 µM
[12] = second compound 0.316 µM, first compound 0.3 µM
[13] = second compound 1 µM, first compound 0.000949 µM
[14] = second compound 1 µM, first compound 0.003 µM
[15] = second compound 1 µM, first compound 0.00949 µM
[16] = second compound 1 µM, first compound 0.03 µM
[17] = second compound 1 µM, first compound 0.0949 µM
[18] = second compound 1 µM, first compound 0.3 µM
[19] = second compound 3.16 µM, first compound 0.000949 µM
[20] = second compound 3.16 µM, first compound 0.003 µM
[21] = second compound 3.16 µM, first compound 0.00949 µM
[22] = second compound 3.16 µM, first compound 0.03 µM
[23] = second compound 3.16 µM, first compound 0.0949 µM
[24] = second compound 3.16 µM, first compound 0.3 µM
[25] = second compound 10 µM, first compound 0.000949 µM
[26] = second compound 10 µM, first compound 0.003 µM
[27] = second compound 10 µM, first compound 0.00949 µM
[28] = second compound 10 µM, first compound 0.03 µM
[29] = second compound 10 µM, first compound 0.0949 µM
[30] = second compound 10 µM, first compound 0.3 µM
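Further: spheroids exposed to agents for seven days before viability read.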

## CC(C)CC(NC(=O)C(Cc1ccccc1)NC(=O)c1cnccn1)B(O)O (stereo not given) + Cc1cncc(-c2nc(NCCc3c[nH]c4ccccc34)c3ncn(C(C)C)c3n2)c1
Second compound 0.1 µM
  IC50: 4.75 nM
Second compound 0.316 µM
  IC50: 4.16 nM
Second compound 1 µM
  IC50: 4.21 nM
Second compound 3.16 µM
  IC50: 4.41 nM
Second compound 10 µM
  IC50: < 0.949 nM
[1]
  viability, T/C: 140%
[2]
  viability, T/C: 82.9%
[3]
  viability, T/C: 0.38%
[4]
  viability, T/C: 0.6%
[5]
  viability, T/C: 0.37%
[6]
  viability, T/C: 0.39%
[7]
  viability, T/C: 123%
[8]
  viability, T/C: 69.4%
[9]
  viability, T/C: 0.83%
[10]
  viability, T/C: 2.26%
[11]
  viability, T/C: 1.05%
[12]
  viability, T/C: 0.73%
[13]
  viability, T/C: 107%
[14]
  viability, T/C: 70.6%
[15]
  viability, T/C: 0.67%
[16]
  viability, T/C: 0.27%
[17]
  viability, T/C: 0.57%
[18]
  viability, T/C: 0.35%
[19]
  viability, T/C: 109%
[20]
  viability, T/C: 74.3%
[21]
  viability, T/C: 1.45%
[22]
  viability, T/C: 0.48%
[23]
  viability, T/C: 0.28%
[24]
  viability, T/C: 0.4%
[25]
  viability, T/C: 5.75%
[26]
  viability, T/C: 2.91%
[27]
  viability, T/C: 1.36%
[28]
  viability, T/C: 0.48%
[29]
  viability, T/C: 0.49%
[30]
  viability, T/C: 0.42%

## CCc1c2c(nc3ccc(O)cc13)-c1cc3c(c(=O)n1C2)COC(=O)[C@]3(O)CC + Cc1cncc(-c2nc(NCCc3c[nH]c4ccccc34)c3ncn(C(C)C)c3n2)c1
Second compound 0.1 µM
  IC50: > 300 nM
Second compound 0.316 µM
  IC50: > 300 nM
Second compound 1 µM
  IC50: > 300 nM
Second compound 3.16 µM
  IC50: 204 nM
Second compound 10 µM
  IC50: < 0.949 nM
[1]
  viability, T/C: 89.1%
[2]
  viability, T/C: 71.7%
[3]
  viability, T/C: 91.8%
[4]
  viability, T/C: 65.7%
[5]
  viability, T/C: 83.1%
[6]
  viability, T/C: 80.9%
[7]
  viability, T/C: 82.3%
[8]
  viability, T/C: 81.9%
[9]
  viability, T/C: 102%
[10]
  viability, T/C: 97.3%
[11]
  viability, T/C: 63.5%
[12]
  viability, T/C: 61.4%
[13]
  viability, T/C: 88.5%
[14]
  viability, T/C: 71.3%
[15]
  viability, T/C: 93.6%
[16]
  viability, T/C: 76%
[17]
  viability, T/C: 73.9%
[18]
  viability, T/C: 70.3%
[19]
  viability, T/C: 71.7%
[20]
  viability, T/C: 95.7%
[21]
  viability, T/C: 91.7%
[22]
  viability, T/C: 79.3%
[23]
  viability, T/C: 55.4%
[24]
  viability, T/C: 47.2%
[25]
  viability, T/C: 2.77%
[26]
  viability, T/C: 3.5%
[27]
  viability, T/C: 8.95%
[28]
  viability, T/C: 6.69%
[29]
  viability, T/C: 10.2%
[30]
  viability, T/C: 10.6%

## COc1cc(Nc2ncc3c(n2)-c2ccc(Cl)cc2C(c2c(F)cccc2OC)=NC3)ccc1C(=O)O + Cc1cncc(-c2nc(NCCc3c[nH]c4ccccc34)c3ncn(C(C)C)c3n2)c1
Second compound 0.1 µM
  IC50: > 10000 nM
Second compound 0.316 µM
  IC50: > 10000 nM
Second compound 1 µM
  IC50: > 10000 nM
Second compound 3.16 µM
  IC50: > 10000 nM
Second compound 10 µM
  IC50: < 31.6 nM
Second compound 0.1 µM, first compound 0.0316 µM
  viability, T/C: 116%
Second compound 0.1 µM, first compound 0.1 µM
  viability, T/C: 130%
Second compound 0.1 µM, first compound 0.316 µM
  viability, T/C: 149%
Second compound 0.1 µM, first compound 1 µM
  viability, T/C: 91.1%
Second compound 0.1 µM, first compound 3.16 µM
  viability, T/C: 127%
Second compound 0.1 µM, first compound 10 µM
  viability, T/C: 108%
Second compound 0.316 µM, first compound 0.0316 µM
  viability, T/C: 91.2%
Second compound 0.316 µM, first compound 0.1 µM
  viability, T/C: 137%
Second compound 0.316 µM, first compound 0.316 µM
  viability, T/C: 104%
Second compound 0.316 µM, first compound 1 µM
  viability, T/C: 87.1%
Second compound 0.316 µM, first compound 3.16 µM
  viability, T/C: 93.4%
Second compound 0.316 µM, first compound 10 µM
  viability, T/C: 65%
Second compound 1 µM, first compound 0.0316 µM
  viability, T/C: 88.9%
Second compound 1 µM, first compound 0.1 µM
  viability, T/C: 127%
Second compound 1 µM, first compound 0.316 µM
  viability, T/C: 98.2%
Second compound 1 µM, first compound 1 µM
  viability, T/C: 107%
Second compound 1 µM, first compound 3.16 µM
  viability, T/C: 76%
Second compound 1 µM, first compound 10 µM
  viability, T/C: 80.4%
Second compound 3.16 µM, first compound 0.0316 µM
  viability, T/C: 97.5%
Second compound 3.16 µM, first compound 0.1 µM
  viability, T/C: 131%
Second compound 3.16 µM, first compound 0.316 µM
  viability, T/C: 121%
Second compound 3.16 µM, first compound 1 µM
  viability, T/C: 96.2%
Second compound 3.16 µM, first compound 3.16 µM
  viability, T/C: 82.7%
Second compound 3.16 µM, first compound 10 µM
  viability, T/C: 84.5%
Second compound 10 µM, first compound 0.0316 µM
  viability, T/C: 17.1%
Second compound 10 µM, first compound 0.1 µM
  viability, T/C: 14.8%
Second compound 10 µM, first compound 0.316 µM
  viability, T/C: 18.8%
Second compound 10 µM, first compound 1 µM
  viability, T/C: 15%
Second compound 10 µM, first compound 3.16 µM
  viability, T/C: 19.1%
Second compound 10 µM, first compound 10 µM
  viability, T/C: 25.6%
